Experiments:
[1] = tested on: LMB genes (ER alpha, ER gamma, StAR); parameters: species or system largemouth bass (LMB); conditions: Table II, test not stated
[2] = tested on: hepatic mRNA of adult male SHMs; test: SHM cDNA macroarray (30 genes): hepatic gene expression profiles of exposed fish; format: in vivo, sheepshead minnow (SHM)
hepatic RNA of LMB = test: LMB gene array (132 genes): hepatic gene expression after IP injection; format: in vivo, largemouth bass (LMB); conditions: male LMB liver, two-fold cutoff vs control; for LMB50-1 (clone 50-1) expression / LMB67-1 signal peptidase, endopeptidase expression: 48 h after single IP 4-NP 50 mg/kg
[3] = tested on: estrogen receptors alpha, beta, and gamma, and Vtg 1 mRNA; test: Real-time PCR of ER and Vtg 1 mRNA in LMB liver; format: in vivo, largemouth bass (LMB); conditions: male LMB liver
Excerpt: Experimental Design and Sample Collection: Adult male LMB were purchased from American Sports Fish Hatchery (Montgomery, Ala.) and maintained in fiberglass tanks as previously described (Larkin et al., Comp. Biochem. Physiol. B. Biochem. Mol. Biol. 133:543-557, 2002; Larkin et al., Marine Environ. Res. 54:395-399, 2002; and Larkin et al., Comparative Biochemistry and Physiology 133:543-557, 2002). Array technology as a tool to monitor exposure of fish to xenoestrogens. Marine Environ. Res., 2002; Bowman et al., Mol. Cell. Endocrinol. 196:67-77, 2002). Each fish was injected IP with either 50 mg/kg 4-NP (Fluka, St. Louis, Mo. # 74430), the combination of 50 mg/kg 4-NP and 1.0 mg/kg ICI 182,780 (Tocris Cookson), or vehicle, which consisted of ethanol and DMSO (Sigma, St. Louis, Mo. #5879). Each dose was dissolved in 1 ml of ethanol and then diluted to the appropriate concentration with DMSO. The fish were euthanized by submersion in a water bath containing 50-100 ppm […] 48 hours post injection and sacrificed by a sharp blow to the head followed by cervical transaction. The livers were excised and immediately flash frozen in liquid nitrogen. The frozen tissues were stored at −80° C. until RNA was isolated.
RNA Isolation: Isolation of total RNA from liver tissue was performed with the RNA Stat-60 reagent (Tel-test). Briefly, 30 mg-50 mg of tissue stored in RNA later was homogenized in 0.9 mls STAT 60, choloroform was added, and the mixture was centrifuged at 12,000 g for 15 minutes at 4° C. The extraction process was repeated and the pooled RNA was added to 500 μl isopropanol and allowed to precipitate at −20° C. for at least one hour. Following centrifugation at 12,000 g for 50 minutes, the pellet was washed with 70% ethanol, air dried and resuspended in an appropriate volume (50 μl-120 μl of RNA secure. The samples were treated with RNA secure (Ambion, Austin Tex. #7010) to inactivate contaminating RNases. All isolated RNA was treated with DNase solution (Ambion, Austin, Tex. #1906) following the manufacture's protocol. For all RNA samples, the quantity and quality of total RNA was assessed by spectrophotometric readings at 260 nm and by electrophoresis through a 1% formaldahyde agarose gel stained with ethidium bromide.
Real-Time PCR: Real time PCR was performed using reagents and a 5700 thermocycler purchased from Applied Biosystems (ABI, Foster City, Calif.). The nucleotide sequences of the primers for the ER subtypes and Vtg 1 are as follows: 5′, […] (SEQ ID NO:563) AND 5′[…] (SEQ ID NO:564). Probes and primers for the ER subtypes and Vtg 1 are described in Bowman et al., Ecotoxicology 8:399-416, 1999; and Bowman et al., Mol. Cell Endocrinol. 196:67-77, 2002. Each real time PCR reaction consisted of 0.01-0.2 μg of reverse transcribed total RNA from liver tissue, 1× universal Taqman master mix (ABI, Foster City, Calif.), and primers and probes in a 25 μl reaction. […] Statistical differences between the treatments were determined by one way analysis of variance with Dunnets post-hoc analysis.
Measurement of ER and Vtg 1 mRNA by real-time PCR: Real-time PCR is a sensitive assay that can be used to quantitate expression levels of genes. Using this technology, assays were designed to quantitate the expression of 4 genes, estrogen receptors alpha, beta, and gamma, and Vtg 1 in LMB following exposure to 4-NP and 4-NP/ICI 182,780. […]

[4] = tested on: hepatic mRNA of adult male SHMs; test: SHM estrogen responsive macroarray (54 cDNA clones), E2 exposure; format: in vivo, sheepshead minnow (SHM); conditions: adult male SHM liver; aqueous 100 ng/L E2 in TEG, 5 days; vs TEG control
Experimental: Total hepatic mRNA was extracted from 5 adult male SHMs treated by aqueous exposure to 100 ng/L of E2 dissolved in triethylene glycol (TEG) for 5 days. Minipreps of 54 cDNA clones derived from DD analysis were PCR amplified using primers specific to the M13 sequence of the cloning vector (pGEMT-Easy, Promega, Madison,Wis.). After the PCR reactions the products were purified in spin-columns (Qiagen, Chatsworth, Calif.) and then concentrated in a speed-vac. The cDNA samples were denatured with NaOH, heated to 65° C. for 10 min, and then immediately quenched on ice. 20×SSC (3M NaCl, 0.3M sodium citrate, pH 7.0) that contained 0.01 mM bromophenol blue was then added to the samples to yield a final concentration of 0.3M NaOH, 6×SSC, and 100 ng/μL cDNA template. The samples were then robotically spotted (Biomek 2000, Beckman Coulter, Fullerton, Calif.) in duplicate onto neutral nylon membranes (Fisher Scientific, Pittsburgh, Pa.) using 100 nL pins. The membranes were UV cross-linked and then stored under vacuum at room temperature until hybridized. Various controls, which provided information about the cDNA labeling efficiency, blocking, and non-specific binding of the arrays, were also spotted onto the membranes. These controls included: 3 Arabidopsis thaliana cDNA clones, Cot-1 repetitive sequences, poly A sequence (SpotReport 3, Stratagene, La Jolla, Calif.), and a M13 sequence (vector but no cDNA insert). Labeling of RNA probes and hybridization of blots was performed as described in Example 1.
FIGS. 4A and 4B contain blots of control (TEG-treated) and E2-treated fish, respectively. FIG. 4C is a plot of the mean intensity values. Genes on the macroarray were designated as constitutive genes if their intensity values fell within the range of the highest (1.27) and lowest (0.83) value of the 17 cDNA clones that were used to normalize the data.

[5] = 48 h after single IP dose: E2 2.5 mg/kg or 4-NP 50 mg/kg
[6] = 48 h after single IP dose: E2 2.5 mg/kg or 4-NP 50 mg/kg, listed as NP
[7] = 48 h after single IP dose: E2 2.5 mg/kg, 4-NP 50 mg/kg or p,p′-DDE 100 mg/kg
[8] = 48 h after single IP dose: E2 2.5 mg/kg, 4-NP 50 mg/kg or p,p′-DDE 100 mg/kg, listed as NP
[9] = 48 h after single IP injection, 4-NP 50 mg/kg alone or with ICI 182,780 1.0 mg/kg, not significant
[10] = adult male SHM liver, aqueous E2 65.14 ng/L 5 d, EE2 109 ng/L 4 d, DES 100 ng/L 4 d, pNP 11.81 μg/L 5 d, MXC 5.59 μg/L 13 d, ES 590.3 ng/L, vs untreated control
[11] = adult male SHM liver, aqueous E2 65.14 ng/L 5 d, vs untreated control

## CCCCCCCCCc1ccc(O)cc1 [4-NP, para-nonylphenol]
[1]
  LMB_ER-ALPHA ESTROGEN RECEPTOR ALPHA differentially expressed by: up-reg E2;
[2]; Estrogen receptor alpha (clone ID not given)
  Regulation: up-reg E2; EE2,
[2]; clone SHM2-1: vitellogenin alpha (2)
  Regulation: up-reg E2; EE2,
[2]; clone SHM11: Transferrin
  Regulation: dn-reg E2; EE2,
[2]; clone SHM41: Ubiquitin-conjugating enzyme 9
  Regulation: up-reg NP
[2]; clone SHM72-3: Coagulation Factor XI
  Regulation: up-reg E2; EE2,
[2]; clone SHM76-2: Alphal-microglobulin/bikunin precursor (AMBP) protein
  Regulation: d-reg E2; EE2,
Hepatic RNA of LMB
  LMB50-1 (clone 50-1) expression: down-regulated
  LMB67-1 signal peptidase, endopeptidase expression: up-regulated
Hepatic RNA of LMB; listed as NP
  LMB50-1 (clone 50-1) expression: Down reg NP;
  LMB67-1 signal peptidase, endopeptidase expression: Up-reg NP
Hepatic RNA of LMB; [5]
  LMB5 vitellogenin-2A expression: Up reg E2;
  LMB92-1 (unidentified clone 92-1) expression: up-regulated
  LMB94-1 transferrin expression: down-regulated
  LMB112-1 cathepsin (Aspartic protease) expression: up-regulated
  LMB141 vitellogenin-3 expression: up reg E2; NP,
  four Vtg genes expression: up-regulated (only genes that exhibit a two-fold or greater change in expression were considered to be differentially regulated)
Hepatic RNA of LMB; [6]
  LMB92-1 (unidentified clone 92-1) expression: up-reg E2;
  LMB94-1 transferrin expression: Down-reg.
Hepatic RNA of LMB; [7]
  LMB83 vitellogenin-2 (Vtg 2) expression: up-reg E2;
  LMB87 vitellogenin-1 (Vtg 1) expression: up-reg E2;
  LMB97 choriogenin-3 expression: up-regulated
  LMB108-1 choriogenin-2 expression: up-regulated
Hepatic RNA of LMB; [8]
  LMB97 choriogenin-3 expression: Up-reg E2;
  LMB108-1 choriogenin-2 expression: Up-reg E2; NP;
[3]; 48 h after single IP 4-NP 50 mg/kg, p<0.05
  Vtg 1 message levels increase over controls: approximately 40 fold
[3]; 48 h after single IP injection, 4-NP 50 mg/kg alone (p<0.05) or with ICI 182,780 1.0 mg/kg (p<0.08)
  ER α mRNA increase over controls: 80 fold
[3]; [9]
  ER β mRNA decrease vs controls: approximately 1.3 fold
  ER γ mRNA decrease vs controls: ~2.6 fold

## C[C@]12CC[C@@H]3c4ccc(O)cc4CC[C@H]3[C@@H]1CC[C@@H]2O [E2, estradiol]
[4]
  choriogenic protein (ZP2) expression: up-regulated (intensity value above ˜1.27 was designated an E2 up-regulated gene)
  transferrin expression: down-regulated (a value below ˜0.83 was designated an E2 down-regulated gene)
  vitellogenin α expression: up-regulated (intensity value above ˜1.27 was designated an E2 up-regulated gene)
  vitellogenin β expression: up-regulated (intensity value above ˜1.27 was designated an E2 up-regulated gene)
[2]; [10]
  ER α expression: up-regulated (any cDNA clones in the macroarray experiments above a ˜1.66-fold induction were designated as up-regulated genes)
  Vtg α expression: up-regulated (any cDNA clones in the macroarray experiments above a ˜1.66-fold induction were designated as up-regulated genes)
[2]; [11]
  Vtg β expression: up-regulated (any cDNA clones in the macroarray experiments above a ˜1.66-fold induction were designated as up-regulated genes)
  alpha-1-microglobulin/bikunin precursor protein expression: down-regulated (any cDNA clones that had a value below ˜0.42 were designated as down-regulated)
  beta actin expression: down-regulated (any cDNA clones that had a value below ˜0.42 were designated as down-regulated)
  choriogenin 2 expression: up-regulated (any cDNA clones in the macroarray experiments above a ˜1.66-fold induction were designated as up-regulated genes)
  choriogenin 3 expression: up-regulated (any cDNA clones in the macroarray experiments above a ˜1.66-fold induction were designated as up-regulated genes)
  coagulation factor XI expression: up-regulated (any cDNA clones in the macroarray experiments above a ˜1.66-fold induction were designated as up-regulated genes)
  transferrin expression: down-regulated (any cDNA clones that had a value below ˜0.42 were designated as down-regulated)
Hepatic RNA of LMB; 48 h after single IP E2 2.5 mg/kg
  clone 132-2 expression: up-regulated (only genes that exhibit a two-fold or greater change in expression were considered to be differentially regulated)
Hepatic RNA of LMB; [5]
  four Vtg genes expression: up-regulated (only genes that exhibit a two-fold or greater change in expression were considered to be differentially regulated)

## CC[C@H](CC[C@@H](C)[C@H]1CC[C@H]2[C@@H]3CC=C4C[C@@H](O)CC[C@]4(C)[C@H]3CC[C@]12C)C(C)C [b-sitosterol]
[1]
  LMB_STAR STAR PROTEIN differentially expressed by: dn-reg b-

From patent US20040166509A1, “Detecting hormonally active compounds” (priority 2002, published 2004)
